From ChEMBL document CHEMBL4334512, “Rationally Designed, Conformationally Constrained Inverse Agonists of RORγt-Identification of a Potent, Selective Series with Biologic-Like in Vivo Efficacy” (J Med Chem, 2019) come the findings set out here.

In data set [1] the target is T1, Nuclear receptor ROR-gamma (Homo sapiens, UniProt P51449).
T1 sequence (P51449 whole entry): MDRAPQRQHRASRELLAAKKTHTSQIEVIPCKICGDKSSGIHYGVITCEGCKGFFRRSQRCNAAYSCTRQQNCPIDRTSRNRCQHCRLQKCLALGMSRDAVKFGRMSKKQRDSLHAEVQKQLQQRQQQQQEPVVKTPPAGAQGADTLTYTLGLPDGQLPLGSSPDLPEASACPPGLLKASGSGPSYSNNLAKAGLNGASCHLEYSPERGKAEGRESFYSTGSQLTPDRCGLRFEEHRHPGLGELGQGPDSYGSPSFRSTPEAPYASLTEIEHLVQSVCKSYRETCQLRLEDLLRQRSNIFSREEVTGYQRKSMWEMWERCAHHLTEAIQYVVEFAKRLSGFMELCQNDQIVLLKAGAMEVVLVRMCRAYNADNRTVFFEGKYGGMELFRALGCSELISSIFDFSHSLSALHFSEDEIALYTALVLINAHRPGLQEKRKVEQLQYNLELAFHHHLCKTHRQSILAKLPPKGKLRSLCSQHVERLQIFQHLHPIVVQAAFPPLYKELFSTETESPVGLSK
Description: Inverse agonist activity at full length human RORgammat expressed in human Jurkat cells assessed as inhibition of constitutive receptor activity incubated for 18 hrs by Gal4-Luc reporter gene assay. The data set is classed as cell-based.

Data set [2] concerns the target T1, Nuclear receptor ROR-gamma. The experiment in a line: Inverse agonist activity at RORgammat in CD3 and CD28-stimulated human whole blood assessed as reduction in IL17A production incubated for 1 hr before CD3 and CD28 stimulation for 20 hrs by AlphaLISA method. The data set is classed as tissue-based.
A short description of data set [3]: Half life in human liver microsomes. The data set is classed as ADME, Microsome.
A short description of data set [4]: Half life in rat liver microsomes. Format: ADME, Microsome.
A short description of data set [5]: Half life in mouse liver microsomes. The data set is classed as ADME, Microsome.
Data set [6] concerns the target T2, Nuclear receptor subfamily 1 group I member 2 (Homo sapiens, UniProt O75469).
T2 sequence (O75469 whole entry): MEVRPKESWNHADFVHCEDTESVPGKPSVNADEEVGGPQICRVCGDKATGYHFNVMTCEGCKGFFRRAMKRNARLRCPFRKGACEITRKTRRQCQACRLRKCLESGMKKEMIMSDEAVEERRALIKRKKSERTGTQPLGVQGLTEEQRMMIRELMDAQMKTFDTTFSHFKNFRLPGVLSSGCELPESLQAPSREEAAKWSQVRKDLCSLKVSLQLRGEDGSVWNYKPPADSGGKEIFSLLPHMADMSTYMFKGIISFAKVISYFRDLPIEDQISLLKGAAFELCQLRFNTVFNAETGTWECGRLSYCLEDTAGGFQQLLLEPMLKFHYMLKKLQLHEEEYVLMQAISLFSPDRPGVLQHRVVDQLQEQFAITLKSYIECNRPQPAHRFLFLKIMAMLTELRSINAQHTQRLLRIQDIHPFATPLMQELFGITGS
Description: Activity at PXR (unknown origin).

Data set [7] has as its target T3, Nuclear receptor ROR-alpha (Homo sapiens, UniProt P35398).
T3 sequence (P35398 whole entry): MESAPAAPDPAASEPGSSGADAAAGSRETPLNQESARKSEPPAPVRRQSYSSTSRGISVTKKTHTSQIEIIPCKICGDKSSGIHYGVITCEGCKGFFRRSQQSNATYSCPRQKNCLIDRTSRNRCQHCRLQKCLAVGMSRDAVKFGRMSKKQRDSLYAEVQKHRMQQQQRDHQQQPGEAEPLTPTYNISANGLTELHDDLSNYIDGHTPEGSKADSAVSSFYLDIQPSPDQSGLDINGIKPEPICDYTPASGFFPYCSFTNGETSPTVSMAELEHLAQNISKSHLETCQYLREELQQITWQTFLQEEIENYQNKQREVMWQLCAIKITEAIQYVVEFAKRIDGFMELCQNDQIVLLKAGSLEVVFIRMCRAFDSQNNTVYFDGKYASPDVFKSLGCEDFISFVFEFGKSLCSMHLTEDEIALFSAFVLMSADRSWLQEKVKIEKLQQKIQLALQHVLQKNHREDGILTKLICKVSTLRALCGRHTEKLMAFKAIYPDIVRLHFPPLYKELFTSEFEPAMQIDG
Description: Activity at RORalpha (unknown origin).

Data set [8] deals with T4, Nuclear receptor ROR-beta (Homo sapiens, UniProt Q92753).
T4 sequence (Q92753 whole entry): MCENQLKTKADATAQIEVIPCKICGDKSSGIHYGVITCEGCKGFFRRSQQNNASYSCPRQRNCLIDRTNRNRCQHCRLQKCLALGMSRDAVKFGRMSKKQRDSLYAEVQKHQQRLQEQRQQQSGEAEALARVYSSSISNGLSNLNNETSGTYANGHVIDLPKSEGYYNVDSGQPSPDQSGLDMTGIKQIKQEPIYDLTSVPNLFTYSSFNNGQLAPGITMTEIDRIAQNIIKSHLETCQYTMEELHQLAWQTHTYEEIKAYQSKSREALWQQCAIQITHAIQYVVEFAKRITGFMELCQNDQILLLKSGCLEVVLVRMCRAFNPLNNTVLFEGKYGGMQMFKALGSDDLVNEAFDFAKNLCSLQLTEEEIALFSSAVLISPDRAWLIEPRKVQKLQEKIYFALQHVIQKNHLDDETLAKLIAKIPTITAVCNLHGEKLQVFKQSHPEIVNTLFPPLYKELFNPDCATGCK
Description: Activity at RORbeta (unknown origin).

Data set [9] addresses T5, Oxysterols receptor LXR-alpha (Homo sapiens, UniProt Q13133).
T5 sequence (Q13133 whole entry): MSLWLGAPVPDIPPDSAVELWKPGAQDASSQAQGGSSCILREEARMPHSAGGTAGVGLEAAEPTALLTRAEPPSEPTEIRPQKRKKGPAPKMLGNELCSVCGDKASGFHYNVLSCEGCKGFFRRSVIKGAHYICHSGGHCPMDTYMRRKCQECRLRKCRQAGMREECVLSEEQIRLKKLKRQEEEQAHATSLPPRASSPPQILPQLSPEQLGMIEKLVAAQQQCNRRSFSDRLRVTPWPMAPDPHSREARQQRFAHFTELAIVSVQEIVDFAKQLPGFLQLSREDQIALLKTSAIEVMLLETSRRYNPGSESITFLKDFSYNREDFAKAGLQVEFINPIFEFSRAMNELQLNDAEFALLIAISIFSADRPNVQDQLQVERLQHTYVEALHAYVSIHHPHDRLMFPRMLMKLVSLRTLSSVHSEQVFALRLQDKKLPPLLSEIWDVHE
Description: Activity at LXRalpha (unknown origin).

The target in data set [10] is T6, Oxysterols receptor LXR-beta (Homo sapiens, UniProt P55055).
T6 sequence (P55055 whole entry): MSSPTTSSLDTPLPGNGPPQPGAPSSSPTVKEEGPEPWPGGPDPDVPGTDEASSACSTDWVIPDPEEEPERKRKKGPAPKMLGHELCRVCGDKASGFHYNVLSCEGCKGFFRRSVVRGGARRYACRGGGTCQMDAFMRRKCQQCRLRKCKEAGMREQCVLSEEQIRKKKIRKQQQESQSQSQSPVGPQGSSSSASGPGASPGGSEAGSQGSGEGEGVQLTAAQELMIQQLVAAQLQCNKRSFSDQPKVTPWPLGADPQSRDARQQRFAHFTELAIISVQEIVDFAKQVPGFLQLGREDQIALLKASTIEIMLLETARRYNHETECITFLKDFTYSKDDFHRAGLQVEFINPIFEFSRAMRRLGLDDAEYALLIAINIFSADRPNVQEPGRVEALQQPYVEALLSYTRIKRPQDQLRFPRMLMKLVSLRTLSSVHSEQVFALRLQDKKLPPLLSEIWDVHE
Description: Activity at LXRbeta (unknown origin).

The nature of data set [11]: Unbound fraction in human serum. The data set is classed as ADME, cell-free.

Where only a bound is given, the exact number is not on record here.

Consider `O=C(O)[C@H]1CC[C@](F)(C(=O)N2CC[C@@]3(S(=O)(=O)c4ccc(F)cc4)c4ccc(C(F)(C(F)(F)F)C(F)(F)F)cc4CC[C@@H]23)CC1`, for which the EC50 stood at 0.015 µM in data set [1] and 0.046 µM in [2]. Moreover, the half-life in [3], in data set [4] and in data set [5] was > 2 h each time. The IC50 in data set [6] was > 40 µM; in data set [7], > 10 µM; in [8], > 10 µM; in data set [9], > 10 µM; in data set [10], > 10 µM.
Regarding `CN1C[C@H]2N(C(=O)C3(O)CCS(=O)(=O)CC3)CC[C@@]2(S(=O)(=O)c2ccc(F)cc2)c2ccc(C(F)(C(F)(F)F)C(F)(F)F)cc21`, the EC50 in data set [1] amounted to 0.02 µM; in data set [2] it was 0.083 µM. For the same molecule, the half-life in [3] was > 2 h; in data set [4] it was 1.4 h; in [5], 0.433 h. This molecule also returned a fraction unbound in data set [11] of 0.003. Moreover, the IC50 is > 40 µM in data set [6]; > 10 µM in data set [7]; > 10 µM in data set [8]; > 10 µM in data set [9]; > 10 µM in data set [10].
